# Activity calls are given as the source filed them. The rule behind the calls is not given here.
# Key:
# Escherichia coli = assay: Antimicrobial activity against Escherichia coli upto 12.5 ug/ml; type: functional, organism-based
# Pseudomonas aeruginosa = assay: Antimicrobial activity against Pseudomonas aeruginosa upto 12.5 ug/ml; type: functional, organism-based
# [1] = target: Human immunodeficiency virus type 1 integrase (Human immunodeficiency virus 1) (UniProt Q7ZJM1); assay: Inhibition of HIV1 integrase at 10 ug/ml
# Sequence of Human immunodeficiency virus type 1 integrase (Human immunodeficiency virus 1) (Q7ZJM1 as listed by the source): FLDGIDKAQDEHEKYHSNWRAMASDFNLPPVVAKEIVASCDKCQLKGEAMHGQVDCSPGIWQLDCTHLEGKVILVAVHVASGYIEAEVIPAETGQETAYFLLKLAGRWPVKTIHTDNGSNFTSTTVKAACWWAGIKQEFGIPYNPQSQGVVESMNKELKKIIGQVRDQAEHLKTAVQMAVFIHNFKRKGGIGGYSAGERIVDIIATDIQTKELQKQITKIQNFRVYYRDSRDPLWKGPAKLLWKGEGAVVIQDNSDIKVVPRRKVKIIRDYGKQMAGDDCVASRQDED
# [2] = test system: Staphylococcus epidermidis; assay: Antimicrobial activity against Staphylococcus epidermidis 13889; type: functional, organism-based
# Cryptococcus neoformans = assay: Antimicrobial activity against Cryptococcus neoformans TIMM 0354; type: functional, organism-based
# Staphylococcus aureus [3] = assay: Antimicrobial activity against Staphylococcus aureus 12732; type: functional, organism-based
# Enterococcus faecalis = assay: Antimicrobial activity against Enterococcus faecalis 12964; type: functional, organism-based
# Candida albicans = assay: Antimicrobial activity against Candida albicans IFO 1269; type: functional, organism-based
# Staphylococcus aureus [4] = assay: Antimicrobial activity against methicillin-resistant Staphylococcus aureus; type: functional, organism-based
# Enterococcus faecium = assay: Antimicrobial activity against Enterococcus faecium 12367; type: functional, organism-based
Compound,Activity (Escherichia coli),Activity (Pseudomonas aeruginosa),Activity [1],IC50 [2],IC50 (Cryptococcus neoformans),IC50 (Staphylococcus aureus [3]),IC50 (Enterococcus faecalis),IC50 (Candida albicans),IC50 (Staphylococcus aureus [4]),IC50 (Enterococcus faecium)
C=C1CC[C@]2(C)[C@@H](C)CCC[C@]2(C)[C@H]1CC/C(C)=C/Cn1c[n+](C)c2ncnc(N)c21,inactive,inactive,inactive,–,–,–,–,–,–,–
CC1=CCC[C@@H]2[C@@](C)(CC/C(C)=C/Cn3c[n+](C)c4ncnc(N)c43)[C@H](C)CC[C@@]12C.[Cl-] [AGELASINE B],–,–,–,1.56 µg/mL,3.13 µg/mL,0.78 µg/mL,6.25 µg/mL,> 12.5 µg/mL,3.13 µg/mL,3.13 µg/mL
NC(=O)c1ccc(Br)[nH]1,inactive,inactive,inactive,3.13 µg/mL,3.13 µg/mL,0.78 µg/mL,6.25 µg/mL,6.25 µg/mL,3.13 µg/mL,3.13 µg/mL
COCNC(=O)c1ccc(Br)[nH]1,inactive,inactive,inactive,–,–,–,–,–,–,–

# From ChEMBL document CHEMBL1150969, “New alkaloids from the papua new guinean sponge agelas nakamurai” (J Nat Prod, 1998)
